Some test systems named below: SF-268 CNS; TK-10 renal; MALME-3M melanoma; HL-60(TB) leukemia; NCI-H23 lung; SR leukemia; SK-OV-3 ovarian; HCT-116 colon; SF-539 CNS; SK-MEL-5 melanoma.
Common to all, as to assay: NCI tumour cell line growth inhibition, 48 h

Molecules are shown by their SMILES.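 Where inhibition never reached the appropriate level, the endpoint shown equals the highest concentration tested. Otherwise, values were interpolated linearly from a five-concentration, 48-hour dose response in 96-well plates. Abbreviation: GI50, concentration required for 50% inhibition of growth. TGI is the concentration that stops growth completely.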 Bounds are passed on as bounds.

Regarding `O=C(c1ccccc1)c1c(C(F)(F)F)n([O-])c2ccc(C(F)(F)F)cc2[n+]1=O`, the GI50 was 0.195 µM in the assay on SF-268 CNS; 0.636 µM in the assay on TK-10 renal; 0.545 µM in the assay with MALME-3M melanoma; 0.084 µM in the assay with HL-60(TB) leukemia; 0.503 µM in the assay on NCI-H23 lung; 0.109 µM with SR leukemia. Besides, the GI50 in the assay with SK-OV-3 ovarian was 0.988 µM; in the assay on HCT-116 colon it was 0.138 µM; in the assay on SF-539 CNS, 0.315 µM; in the assay with SK-MEL-5 melanoma, 0.504 µM. In addition, the TGI in the assay with SF-268 CNS worked out at 0.449 µM; with TK-10 renal it was 1.35 µM; in the assay on MALME-3M melanoma, 1.2 µM; with HL-60(TB) leukemia, 0.309 µM; in the assay with NCI-H23 lung it was 1.13 µM; in the assay on SR leukemia, 0.393 µM. Besides, the TGI with SK-OV-3 ovarian is 2.38 µM; in the assay with HCT-116 colon, 0.27 µM; in the assay with SF-539 CNS, 0.745 µM; in the assay with SK-MEL-5 melanoma, 0.933 µM.

Regarding `O=C(NC(=O)c1ccccc1[N+](=O)[O-])Nc1ccc(Oc2ncc(Cl)cn2)c(C(F)(F)F)c1`, the TGI is 38.4 µM in the assay with SF-268 CNS; more than 100 µM in the assay on TK-10 renal; more than 100 µM with MALME-3M melanoma; 0.125 µM in the assay on HL-60(TB) leukemia; more than 100 µM with NCI-H23 lung; more than 100 µM with SR leukemia. In addition, the TGI in the assay on SK-OV-3 ovarian was more than 46.5 µM; in the assay with HCT-116 colon, 27.3 µM; in the assay on SF-539 CNS, 0.489 µM; in the assay with SK-MEL-5 melanoma, 1.17 µM.

For `COc1ccc(Cn2cc3c(c2-c2cc(OC)c(OC)c(OC)c2)CCc2cnoc2-3)cc1`, the GI50 in the assay on SF-268 CNS is 1.18 µM; in the assay on TK-10 renal, 0.842 µM; in the assay on MALME-3M melanoma it was 0.239 µM; in the assay on HL-60(TB) leukemia it was 0.204 µM; in the assay with NCI-H23 lung it was 0.388 µM; in the assay with SR leukemia, 0.175 µM. Further, the GI50 with SK-OV-3 ovarian is 0.365 µM; in the assay with HCT-116 colon, 0.386 µM; with SF-539 CNS, 0.283 µM; in the assay with SK-MEL-5 melanoma, 0.276 µM. Besides, the TGI in the assay with SF-268 CNS was more than 100 µM; in the assay on TK-10 renal, more than 100 µM; in the assay on MALME-3M melanoma, more than 100 µM; in the assay with HL-60(TB) leukemia, 0.647 µM; with NCI-H23 lung, more than 100 µM; in the assay with SR leukemia, 1.42 µM. Further, the TGI with SK-OV-3 ovarian is more than 100 µM; in the assay with HCT-116 colon, more than 100 µM; in the assay with SF-539 CNS, 2.39 µM; in the assay with SK-MEL-5 melanoma it was 4.99 µM.

Consider `CCCCCCCCCCCCCCCC1=NC(C)(C)CN1C(C)C`, for which the GI50 in the assay on SF-268 CNS is 1.47 µM; with TK-10 renal, 1.44 µM; with MALME-3M melanoma, 1.64 µM; with HL-60(TB) leukemia it was 0.91 µM; with NCI-H23 lung, 1.49 µM; in the assay on SR leukemia it was 0.254 µM. Moreover, the GI50 in the assay on SK-OV-3 ovarian is 1.85 µM; in the assay with HCT-116 colon, 1.22 µM; in the assay on SF-539 CNS, 1.63 µM; in the assay on SK-MEL-5 melanoma, 1.68 µM. For the same compound, the TGI in the assay on SF-268 CNS was determined as 2.79 µM; in the assay with TK-10 renal, 2.74 µM; in the assay on MALME-3M melanoma it was 3.35 µM; with HL-60(TB) leukemia, 2.4 µM; in the assay on NCI-H23 lung, 2.81 µM; in the assay with SR leukemia, 1.36 µM. For the same compound, the TGI with SK-OV-3 ovarian is 3.57 µM; in the assay with HCT-116 colon, 2.46 µM; with SF-539 CNS, 2.98 µM; in the assay with SK-MEL-5 melanoma it was 3.04 µM.

For the compound `O=C(CCC(=O)C1CCC/C1=N/O)Nc1ccc(Cl)cc1` (stereo not given), the TGI with SF-268 CNS, in the assay with TK-10 renal, in the assay on MALME-3M melanoma, with HL-60(TB) leukemia, with NCI-H23 lung and with SR leukemia was more than 100 µM throughout. Also, the TGI in the assay on SK-OV-3 ovarian, in the assay on HCT-116 colon, with SF-539 CNS and with SK-MEL-5 melanoma was more than 100 µM throughout.

For the compound `Cc1cc(I)cc(CN(C)CCCN2CCN(C)CC2)c1O`, the GI50 is 35 µM in the assay with SF-268 CNS; 61.7 µM in the assay on TK-10 renal; 19.9 µM in the assay with MALME-3M melanoma; 27.1 µM with HL-60(TB) leukemia; 82.4 µM with NCI-H23 lung; 20.1 µM in the assay on SR leukemia. Also, the GI50 in the assay with SK-OV-3 ovarian is 65.7 µM; with HCT-116 colon, 12.6 µM; in the assay on SF-539 CNS, 16 µM; in the assay on SK-MEL-5 melanoma it was 16.1 µM. Further, the TGI is more than 100 µM with SF-268 CNS; more than 100 µM with TK-10 renal; 36.2 µM in the assay with MALME-3M melanoma; more than 57.9 µM in the assay on HL-60(TB) leukemia; more than 100 µM with NCI-H23 lung; more than 55.1 µM in the assay on SR leukemia. The TGI in the assay with SK-OV-3 ovarian is more than 100 µM; in the assay on HCT-116 colon, more than 86.1 µM; in the assay with SF-539 CNS it was 33 µM; in the assay on SK-MEL-5 melanoma, 29.9 µM.

On to `Cc1cc(Nc2cc(N)ncn2)c(=O)n2c1C(=O)NC21CCCCC1`, for which the GI50 in the assay with SF-268 CNS is 76.9 µM; in the assay on TK-10 renal, more than 100 µM; in the assay on MALME-3M melanoma, more than 100 µM; in the assay on HL-60(TB) leukemia, more than 100 µM; with NCI-H23 lung it was more than 100 µM; in the assay on SR leukemia, more than 100 µM. Moreover, the GI50 in the assay with SK-OV-3 ovarian is 62 µM; in the assay on HCT-116 colon it was more than 100 µM; in the assay with SF-539 CNS, 94.6 µM; in the assay with SK-MEL-5 melanoma, more than 100 µM. For the same compound, the TGI with SF-268 CNS, in the assay on TK-10 renal, in the assay on MALME-3M melanoma, in the assay on HL-60(TB) leukemia, in the assay on NCI-H23 lung and in the assay on SR leukemia was more than 100 µM each time. Also, the TGI with SK-OV-3 ovarian, with HCT-116 colon, with SF-539 CNS and in the assay on SK-MEL-5 melanoma was more than 100 µM throughout.

Consider `CC(O)c1cc(C(=O)N[C@@H](C)Cn2ccc(-c3ccc(C#N)c(Cl)c3)n2)n[nH]1` (stereo not given in full), for which the GI50 in the assay on SF-268 CNS is more than 100 µM; in the assay on TK-10 renal it was more than 100 µM; in the assay with MALME-3M melanoma, 42.5 µM; in the assay with HL-60(TB) leukemia, 0.0272 µM; in the assay with NCI-H23 lung, 76 µM; in the assay with SR leukemia it was 8.06 µM. The GI50 in the assay on SK-OV-3 ovarian was more than 100 µM; with HCT-116 colon, 45.7 µM; in the assay on SF-539 CNS, more than 100 µM; with SK-MEL-5 melanoma it was 15.2 µM. The TGI in the assay with SF-268 CNS was more than 100 µM; in the assay on TK-10 renal, more than 100 µM; in the assay with MALME-3M melanoma it was more than 100 µM; in the assay on HL-60(TB) leukemia, 0.24 µM; in the assay with NCI-H23 lung, more than 100 µM; in the assay with SR leukemia it was more than 100 µM. Moreover, the TGI is more than 100 µM in the assay on SK-OV-3 ovarian, more than 100 µM in the assay with HCT-116 colon, more than 100 µM in the assay on SF-539 CNS and 48.3 µM with SK-MEL-5 melanoma.

With `CN(C)CCCn1c(-c2nonc2N)nc2cnccc21`, the GI50 in the assay with SF-268 CNS is more than 25 µM; with TK-10 renal, more than 9.98 µM; in the assay with MALME-3M melanoma, more than 25 µM; with HL-60(TB) leukemia it was more than 25 µM; in the assay with NCI-H23 lung, more than 25 µM; in the assay with SR leukemia, more than 25 µM. Also, the GI50 in the assay with SK-OV-3 ovarian, in the assay on HCT-116 colon, in the assay on SF-539 CNS and in the assay with SK-MEL-5 melanoma was more than 25 µM in each case. Also, the TGI with SF-268 CNS, with TK-10 renal, in the assay on MALME-3M melanoma, in the assay on HL-60(TB) leukemia, with NCI-H23 lung and with SR leukemia was more than 25 µM throughout. Besides, the TGI in the assay on SK-OV-3 ovarian, in the assay on HCT-116 colon, in the assay with SF-539 CNS and in the assay with SK-MEL-5 melanoma was more than 25 µM in each case.

For `C=CC(COC(c1ccccc1)(c1ccccc1)c1ccccc1)N(CC)CC` (stereo not given), the GI50 in the assay with SF-268 CNS is 11 µM; in the assay on TK-10 renal it was 3.19 µM; with MALME-3M melanoma it was 1.89 µM; in the assay on HL-60(TB) leukemia it was 3.68 µM; in the assay on NCI-H23 lung, 6.07 µM; with SR leukemia, 2.13 µM. Besides, the GI50 is 8.12 µM in the assay with SK-OV-3 ovarian, 3.43 µM with HCT-116 colon, 4.88 µM in the assay with SF-539 CNS and 1.95 µM in the assay on SK-MEL-5 melanoma. Moreover, the TGI is 24.9 µM with SF-268 CNS; 10.8 µM in the assay on TK-10 renal; 4.3 µM in the assay with MALME-3M melanoma; 16.2 µM in the assay with HL-60(TB) leukemia; 19.9 µM in the assay with NCI-H23 lung; 5.29 µM in the assay on SR leukemia. The TGI was found to be 21.4 µM in the assay on SK-OV-3 ovarian, 14.3 µM in the assay on HCT-116 colon, 18.6 µM in the assay with SF-539 CNS and 3.98 µM with SK-MEL-5 melanoma.

On to `Oc1ccc(N=Nc2ccccn2)c(O)c1`, for which the GI50 in the assay with SF-268 CNS was 0.732 µM; in the assay with TK-10 renal, 0.661 µM; with MALME-3M melanoma it was 4.86 µM; with HL-60(TB) leukemia it was 0.412 µM; with NCI-H23 lung it was 2.66 µM; in the assay on SR leukemia it was 0.723 µM. For the same compound, the GI50 in the assay with SK-OV-3 ovarian was 1.23 µM; in the assay with HCT-116 colon, 0.428 µM; in the assay with SF-539 CNS it was 0.999 µM; in the assay with SK-MEL-5 melanoma it was 2.1 µM. Besides, the TGI with SF-268 CNS is more than 100 µM; in the assay on TK-10 renal, more than 100 µM; with MALME-3M melanoma it was more than 100 µM; with HL-60(TB) leukemia, 8.75 µM; in the assay with NCI-H23 lung, more than 100 µM; with SR leukemia, more than 100 µM. Also, the TGI is more than 100 µM with SK-OV-3 ovarian, more than 100 µM with HCT-116 colon, 61.8 µM in the assay with SF-539 CNS and 24.2 µM in the assay on SK-MEL-5 melanoma.

Turning to `CCCCCCCCCCC(C)CCCCCCC(=O)O` (stereo not given), the TGI in the assay with SF-268 CNS, in the assay with TK-10 renal, in the assay on MALME-3M melanoma, in the assay on HL-60(TB) leukemia, in the assay on NCI-H23 lung and in the assay on SR leukemia was more than 100 µM throughout. In addition, the TGI in the assay with SK-OV-3 ovarian, with HCT-116 colon, in the assay on SF-539 CNS and in the assay on SK-MEL-5 melanoma was more than 100 µM throughout.

Source of the values: PubChem BioAssay (NCI).
